“And” between values parts separate entries of the source, which are not always exact repeats. Equal entries are not always repeated.

Data on 2 compounds can be found in PMC4141155 (2014).

The subject of assay [1] is d[(TTAGGG)4TTA] (DNA, G4) TTAGGGTTAGGGTTAGGGTTAGGGTTA
Kind of assay: ESI-TOF-MS fraction of bound G-quadruplex. The settings on record: NH4+ 50 mM (ammonium acetate); pH 7.6, 50 % methanol; equimolar 10 μM.

Assay [2] has as its system dAGGG(TTAGGG)3 (DNA, G4) AGGGTTAGGGTTAGGGTTAGGG
Kind of assay: UV melting at 295 nm. The settings on record: K+ 100 mM (KCl); 25 mM Tris–HCl pH 7.4; 5 μM DNA, 10 μM ligand; 2.27 °C higher than tetrachloride.

For assay [3], the system named is r[(UUAGGG)4UUA] (RNA, G4) UUAGGGUUAGGGUUAGGGUUAGGGUUA
Kind of assay: ESI-TOF-MS. As to conditions: NH4+ 50 mM (ammonium acetate); pH 7.6, 50 % methanol, equimolar 5 or 10 μM; first of two stepwise constants.

For assay [4], the system named is d[(TTAGGG)4TTA] (DNA, G4) TTAGGGTTAGGGTTAGGGTTAGGGTTA
Kind of assay: ESI-TOF-MS. As to conditions: NH4+ 50 mM (ammonium acetate), pH 7.6, 50 % methanol.

Consider `C[n+]1ccc(-c2c3nc(c(-c4cc[n+](C)cc4)c4ccc([nH]4)c(-c4cc[n+](C)cc4)c4nc(c(-c5cc[n+](C)cc5)c5ccc2[nH]5)C=C4)C=C3)cc1`, for which the RBA in assay [1] was 85.96% and 72.28%. Besides, the binding entry in assay [2] is “yes”. Further, the “K 1 (column head misprinted K 2)” value in assay [3] is given as “(5.62 ± 0.71) × 10^7 M^−1”. Also, the “K 1” value in assay [4] (equimolar 5 or 10 μM, first of two stepwise constants) was “(1.87 ± 0.19) × 10^6 M^−1”.
For `Cc1ccc(S(=O)(=O)O)cc1`, the binding entry in assay [4] (tosyl adducts seen in equimolar mixture with TMPyP4 tetratosylate, 10 μM) is “yes”.
